Results from patent US12433903B2 (priority 2021, dated 2025).

Test system: indomethacin induced intestinal injury
Assay: Indomethacin-induced Crohn's disease in rats
Assay type: in vivo
Procedure: The objective of this study was to determine the efficacy of Compound 1 and Compound 2 in a model of Crohn's disease (indomethacin induced intestinal injury) in rats.
The study design was identical for Compound 1 and Compound 2. On study day -3, rats were weighed and distributed into treatment groups based on body weight.
On study day 0, treatment was initiated and continue as indicated in the Study Design Tables below. Groups 2-6 received a subcutaneous injection of indomethacin (9 mg/kg, 1 ml/kg) in 5% sodium bicarbonate (Sterile Water). On study day 1, Groups 2-6 received a second subcutaneous injection of indomethacin (8 mg/kg, 1 ml/kg) in 5% sodium bicarbonate (Sterile Water). Live phase sample & data collection specifics are outlined below. On study day 4, animals will be euthanized, a section of the small intestine will be removed and weighed. Further necropsy sample and data collection is specified below. Overall efficacy of test articles will be based on body weight, small intestine weight (10 cm), small intestine gross score, and histopathology
At necropsy, the small intestines were evaluated visually and given a gross score according to the following criteria: 0=Normal. 0.5=Very Minimal thickening, multifocal in area at risk. 1=Minimal thickening, fairly diffuse in area at risk. 2=Mild to moderate small intestinal/mesenteric thickening throughout area at risk. 3=Moderate thickening with 1 or more definite adhesions that would be easy to separate. 4=Marked thickening with numerous hard to separate adhesions. 5=Severe intestinal lesion resulting in death.
Preserved 9-cm sections of small intestine were trimmed into 6 transverse sections collected at approximately equal intervals along the […] of the intestine, without bias toward lesion presence or absence. These trimmed sections were processed through graded alcohols and a clearing agent, infiltrated and embedded in paraffin, sectioned, and stained with hematoxylin and eosin (H&E).
Small intestine sections from all animals were examined microscopically by a board-certified veterinary pathologist, and observations were entered into a computer-assisted data retrieval system. Cross sections of small intestine were scored for inflammation and necrosis using the following criteria:
The area at risk for development of this lesion is generally approximately 30% of the total area of a cross section of small intestine where the mesentery attaches.
Inflammation is localized to the mesentery and intestinal area at risk for necrosis with slight extension on either side of it. […] In this case, inflammation is scored based on overall severity ranging from 0.5 (very minimal) to 5 (severe) without regard for the extent of necrosis. The mean score for necrosis and inflammation was calculated for each animal and these mean scores were then summed to arrive at a total score. Each section also has a measurement of total width of mucosal necrosis.

[1] = Group 5 (Compound 1: 200 mg/kg PO)
[2] = Groups 4 and 5 (Compound 1: 50 and 200 mg/kg PO)

## CCCCCc1cc(O)c(C/C=C(\C)CCC=C(C)C)c(OC)c1 [Compound 1, (E)-2-(3,7-dimethylocta-2,6-dien-1-yl)-3-methoxy-5-pentylphenol]
Group 4 (Compound 1: 50 mg/kg PO)
  small intestine gross score compared to vehicle: trend in lower small intestine gross score
[1]
  histopathology scores vs vehicle and dexamethasone: significantly lower
  necrosis width vs vehicle and dexamethasone: significantly lower
[2]
  Histopathology scores vs vehicle (Group 2) and positive control (Group 3): trended lower
  necrosis width vs vehicle (Group 2) and positive control (Group 3): trended lower
Groups 5-6 (Compound 1: 200 and 800 mg/kg PO)
  small intestine gross score compared to vehicle: significant reductions in gross score
All three treatment groups (Groups 4-6), PO days 0-3
  small intestine weight compared to vehicle: significantly lower
All treatment groups (Groups 4-6), PO days 0-3, in comparison to dexamethasone (Compound 2: and vehicle)
  body weight change from Study Day -3 (preventing weight loss): all trended towards or had significant differences in preventing weight loss
